Test results taken from PubChem BioAssay (NCI).
Several values for one entry are separate records, joined by “and”; a condition that tells them apart may be missing. Identical values can stand only once.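 All cell lines were grown in 96-well plates and treated with compound for 48 hours. GI50 = concentration required for 50% inhibition of growth. TGI: concentration producing complete growth inhibition.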

Key:
Assay in all cases: NCI tumour cell line growth inhibition, 48 h
DLD-1 colon = test system: DLD-1 colon
DMS 273 small cell lung = test system: DMS 273 small cell lung
HOP-18 NSCLC = test system: HOP-18 NSCLC
M19-MEL melanoma = test system: M19-MEL melanoma
RXF-631 renal = test system: RXF-631 renal
SNB-78 CNS = test system: SNB-78 CNS
MDA-N = test system: MDA-N
T-47D breast = test system: T-47D breast
XF 498 CNS = test system: XF 498 CNS
P388 leukemia = test system: P388 leukemia
SN12K1 renal = test system: SN12K1 renal

Compound | TGI (DLD-1 colon) [µM] | TGI (DMS 273 small cell lung) [µM] | TGI (HOP-18 NSCLC) [µM] | TGI (M19-MEL melanoma) [µM] | TGI (RXF-631 renal) [µM] | TGI (SNB-78 CNS) [µM] | TGI (MDA-N) [µM] | TGI (T-47D breast) | TGI (XF 498 CNS) [µM] | GI50 (DLD-1 colon) [µM] | GI50 (DMS 273 small cell lung) [µM] | GI50 (HOP-18 NSCLC) [µM] | GI50 (RXF-631 renal) [µM] | GI50 (SNB-78 CNS) [µM] | GI50 (XF 498 CNS) [µM] | GI50 (T-47D breast) [µM] | TGI (P388 leukemia) [µM] | TGI (SN12K1 renal) [µM]
COc1cc(/C=N/N=C(\N)NO)c([N+](=O)[O-])cc1OC | > 100 | > 100 | > 100 | > 100 | > 100 | > 100 |  |  |  |  |  |  |  |  |  |  |  | 
N#Cc1cccc(N2C(=O)C3C4C=CC(C3C2=O)C2C(=O)N(c3cccc(C#N)c3)C(=O)C42)c1 (stereo unspecified) | > 46.4 | > 31.6 | > 100 |  | 42.9 | 33.7 | > 100 | > 31.6 µM | 36.2 |  |  |  |  |  |  |  |  | 
C=C1C(OC(C)=O)CC(OC(C)=O)C2(C)C(OC(C)=O)C(OC(C)=O)C3=C(C)C(OC(=O)/C=C/c4ccccc4)CC(C(OC(C)=O)C12)C3(C)C (stereo unspecified) | > 100 | > 100 | > 100 | > 100 | > 100 | > 100 |  |  |  |  |  |  |  |  |  |  |  | 
CC1=CCCC2C(C=O)(C1)CC(C)C2(CO)CC/C(=C/CO)CO (stereo unspecified) | > 100 | > 100 | > 100 | > 100 | > 100 | > 100 |  |  |  |  |  |  |  |  |  |  |  | 
CC(=O)Oc1ccc2c(c1)C(=O)c1nc(C)c(C)nc1C2=O | > 100 | > 100 | > 100 | 9.42 | > 91.9 | > 100 |  |  | > 100 |  |  |  |  |  |  |  |  | 
O=C1NC2C(O)CCCCC2C12CCCCC2 (stereo unspecified) | > 100 | > 100 | > 100 | > 100 | > 100 | > 100 |  |  | > 100 |  |  |  |  |  |  |  |  | 
C[CH2][Sn]([CH2]C)([O]C(=O)c1ccc(F)cc1)[O]C(=O)c1ccc(F)cc1 | > 65.8 | > 100 | 29.6 |  | 32.3 | 37.9 |  |  | 37.3 | 23.9 | 55.6 | 16.1 | 17.5 | 20 | 20.2 |  |  | 
CCC1=C(CC2NCCc3ccccc32)CC2c3cc(OC)c(OC)cc3CCN2C1 (stereo unspecified) | > 100 | 3.02 |  | 29.5 | 4.44 | 6.77 | 8.25 | 16.8 µM and 5.85 µM | 13 |  |  |  |  |  |  | 3.9 |  | 
CC1c2[nH]c3ccccc3c2CCN1O (stereo unspecified) | > 100 | > 100 | > 100 | > 100 | > 100 | > 100 |  |  |  |  |  |  |  |  |  |  |  | 
CC(=O)NN1C(=O)C(Cc2ccccc2)c2ccccc21 (stereo unspecified) | > 100 | > 100 | > 100 | > 100 | > 100 | > 100 |  |  | > 100 |  |  |  |  |  |  |  |  | 
COc1cc2cnc3c4cc(OCc5ccccc5)ccc4ccc3c2cc1OC | > 100 |  | > 100 | > 100 | 98.8 | 65.4 |  |  |  |  |  |  |  |  |  |  |  | 
O=C[C@@H](CO)O[C@H](C=O)n1cnc2c(=O)[nH]cnc21 | 395 | 1570 | 1670 | 1540 |  | 2170 | 1610 | 404 µM | 1690 |  |  |  |  |  |  |  | 374 | 1570
COc1ccc(OC(C)C(=O)O)c2c(=O)ccccc12 (stereo unspecified) | > 100 | > 100 |  | > 100 | > 100 | > 100 |  |  | > 100 |  |  |  |  |  |  |  |  | 
C=C1C[C@@H]2C[C@@H](C)CC(O)[C@]2(CCCN)C1O (stereo partly specified) | > 100 | > 100 | > 100 | > 100 | > 100 | > 100 |  |  | > 100 |  |  |  |  |  |  |  |  | 
c1ccc(OC2=NC3=S(S2)SC(Oc2ccccc2)=N3)cc1 | 35 | 85.6 |  | 34.7 | 52.1 | 48.1 |  |  | 32 |  |  |  |  |  |  |  |  | 
COC(=O)N/N=C(\C)CC(=O)Nc1ccc(Cl)cc1 | > 100 |  |  | > 100 | > 100 | > 100 |  |  | > 100 |  |  |  |  |  |  |  |  | 
COC(=O)CC[C@]12C[C@]13CC[C@]1(C)C4C(C)C[C@]5(CC(C)C(=O)O5)OC4CC1(C)C3CCC2C(C)(C)O (stereo partly specified) | > 100 | > 100 | > 100 | > 100 |  | > 100 |  |  | 87.6 |  |  |  |  |  |  |  |  | 
COc1ccc2c(c1)CCc1c-2n[nH]c1-c1[nH]nc2c1CCc1cc(OC)ccc1-2 | > 100 | 52.8 | 98.5 | > 100 |  | > 100 |  |  | 71.2 |  |  |  |  |  |  |  |  | 
CO[C@@]1(c2ccccc2)O[C@H]2OCCC2[C@H]1c1ccc(Cl)cc1 (stereo partly specified) | > 100 | > 100 | 99 |  | > 100 | > 100 |  |  | 69.3 |  |  |  |  |  |  |  |  | 
